Each block holds one compound with its values, some of them ahead of it. No end group written: not given here.
How the values were obtained:
rat cardiomyocytes [1] = test: MTT reduction; type: cell-based
Description: (§1) One test compound (Compound A) was received as dry powder and evaluated for potential cytotoxicity in a battery of in vitro assays. The compound was tested using both rat cardiomyocytes (CM) from rat neonates and a rat hepatoma (H4IIE) cell line. […] The cell supernatant or the cells themselves were harvested for biochemical analysis. General cytotoxicity was evaluated by monitoring membrane integrity, mitochondrial function, cell proliferation, oxidative stress, and apoptosis. In addition, interaction with P-glycoprotein (PgP) on H4IIE cells and solubility of the test compound were also assessed. The means of each exposure group (n=3-7) were calculated for each assay performed.
(§2) Tetrazolium Dye Reduction: 3-[4,5-dimethylthiazol-2-yl]

[2] = system: H4IIE tumor cells, NRK cells, rat primary hepatocytes; test: Anti-tumor screen in three rat cell types; type: cell-based
From the text: In the Anti-tumor screen of the present invention, at least three different cell types are utilized: (1) tumor derived cells, (2) proliferating cells from normal tissue, and (3) non-proliferating cells from normal tissue. The evaluation of anti-tumor agents in multiple cell types provides information on mechanism-based toxicity versus efficacy.
The anti-tumor agent can be evaluated in a toxicity screen of key biochemical functions (as described in detail herein above), with emphasis placed on cell proliferation assays as well as biochemical function and cell viability. Comparisons can then be made to quantitative markers in the concentration response curves constructed with the toxicity data.
It is hypothesized to act through mitochondrial toxicity as well as apoptosis.

[3] = MemTox membrane leakage (AK / α-GST); type: cell-based, rat; conditions: rat, MemTox TC50
Description: as §1
(§3) Experimental Protocol: The test compound was provided and stored at 4° C. until needed. Dosing solutions were prepared in complete culture medium. The rat hepatoma (H4IIE) cell line was used as the test system.
(§4) Membrane Leakage (α-Glutathione S-transferase and/or Adenylate Kinase): The presence of Adenylate Kinase (AK) or α-Glutathione S-transferase (α-GST), both enzyme leakage markers, was measured in the culture medium using an activity assay for Adenylate Kinase and/or an ELISA assay for α-GST. At the end of the exposure period, the medium covering the cells in each well was removed and placed into new 96-well plates with appropriate labeling. […] Luminescence (AK) values were measured with a Packard Fusion or equivalent plate reader, and absorbance (α-GST) values were measured with a Packard SpectraCount™ or equivalent reader at 450 nm and reference absorbance at 650 nm.
(§5) Membrane Leakage (α-Glutathione S-transferase and/or Adenylate Kinase): Leakage of Adenylate Kinase or α-GST from the cell into the culture medium was determined by collecting the culture medium at the end of the exposure period. Thus, the values measured represent total enzyme leakage lost over the exposure period. The control for 100% dead or maximum enzyme release was based on cells treated with 1 mM digitonin at the time of dosing. Percent dead cells relative to digitonin treated cells was determined and then subtracted from 100% to yield the percent live cells.

Intracellular ATP levels [4] = type: cell-based, rat; conditions: rat, ATP TC50
Description: as §1, §3
(§6) Intracellular ATP Levels: Cellular Adenosine triphosphate (ATP) was determined with an assay based on a reaction between ATP+D-luciferin+oxygen catalyzed by luciferase to yield Oxyluciferin+AMP+PPi+CO2+light. The emitted light is proportional to the amount of ATP present. […] In addition, a unique cell lysis reagent inhibits endogenous ATPases and therefore stabilizes cellular ATP by preventing its degradation to ADP. ATP is present in all-living cells and declines rapidly upon cell death. In addition, this assay in combination with the MTT assay provides an indicator of mitochondrial activity and energy status of the cell.
(§7) Plates were analyzed immediately or stored at −20° C. until needed. On the day of analysis, the plates were thawed and calibration curve prepared with ATP in the same liquid matrix as samples. ATP was quantified by adding ATP substrate solution and then reading luminescence on a Packard Fusion Luminescence or equivalent plate reader.
(§8) Intracellular ATP Levels: ATP levels in treated cells could be determined by using the regression coefficients obtained from the linear regression analysis of the calibration curve. Thus, values could be expressed as pmoles ATP/million cells. Background corrected luminescence was used to determine percent change relative to controls by dividing treated values by control values and multiplying by 100.

P-glycoprotein (PgP) = P-glycoprotein (PgP) binding: MTT with and without cyclosporin A; type: cell-based, rat; conditions: H4IIE 24 HR; for % Control (Compound + CSA) / % Control (Compound): MTT, 50 μM; for % Control (Compound + CSA): with cyclosporin A; for % Control (Compound): without CSA; for % Difference: 1-20% low, 20-50% moderate, 50-100% high PgP interaction
Description: Several antiviral drugs are substrates for P-glycoprotein transporter (PgP).
P-glycoprotein (PgP) transport proteins are expressed in the bile canalicular membrane of normal liver. However, in neoplastic cells it is not uncommon to have expression of this transporter system in the plasma membrane. […] The existence of these transporters was evaluated with the Calcein-AM assay and with known substrates of PgP.

[5] = MemTox membrane leakage (AK / α-GST); type: cell-based, rat; conditions: rat
Description: as §1, §4, §5

[6] = Cell number (propidium iodide); type: cell-based, rat; conditions: rat, Cell Number TC50
Description: as §1, §3
Cell Proliferation: Cell proliferation in each well was measured with propidium iodide (PI). This specific nucleic acid binding dye fluoresces when intercalated within the nucleic acids. The 15 nm shift enhances PI fluorescence approximately 20 times while the excitation maxima are shifted 30-40 nm. During method development experiments, it was determined that Triton-X-100 was the best solution to permeabilize the H4IIE cells thereby allowing the PI access to intracellular RNA and DNA. Fluorescence was measured using a Packard Fusion plate reader or equivalent reader at 540 nm excitation and 610 nm emission.
Cell Proliferation: After incubation, the test compound was removed and Triton X-100 solution containing propidium iodide is added. The plate was incubated and read on a fluorescent plate reader. Data was collected as relative fluorescent units (RFU). The blank was subtracted from the final well RFU. It represents the average of the first and last columns which contain no cells on that particular plate. The controls are untreated cells allowed to grow on the same plate. The compounds are represented by several separate RFU data points for each of the tested concentrations. The percent change relative to controls was calculated by dividing the average RFU by the control cell RFU and multiplying by 100.

[7] = Intracellular total glutathione (GSH); type: cell-based, rat; conditions: rat, Total GSH TC50
Description: as §1, §3

MTT reduction [8] = type: cell-based, rat; conditions: rat
Description: as §1, §2

MTT reduction [9] = type: cell-based, rat; conditions: rat, MTT TC50
Description: as §1, §3, §2

Intracellular ATP levels [10] = type: cell-based, rat; conditions: rat
Description: as §1, §6, §7, §8

[11] = Intracellular total glutathione (GSH); type: cell-based, rat; conditions: rat
Description: as §1

H4IIE cells [12] = test: Predicted Ctox from Tox-Panel; type: cell-based, rat; conditions: 24 HR, estimated sustained plasma concentration where toxicity would be expected in vivo
Description: Once all data for a given cluster of assays are received, the data are analyzed to obtain a detailed profile of the compound's toxicity. For example, most conveniently, the data are collated over a dose response range on a single graph. In such an embodiment, the measurement evaluated for each parameter (i.e., each indicator of cell health) at any given concentration is plotted as a percentage of a control measurement obtained in the absence of the compound. However, it should be noted that the data need not be plotted on a single graph, so long as all the parameters are analyzed collectively to yield detailed information of the effects of the concentration of the compound on the different parameters to yield an overall toxicity profile. As set forth below, this overall toxicity profile will facilitate a determination of a plasma concentration Ctox that is predicted to be toxic in vivo. Ctox represents an estimate of the sustained plasma concentration in vivo that would result in toxicity, such as hepatotoxicity or hematopoietic toxicity.
Studies such as these indicate that a preferred concentration for setting Ctox is the highest concentration at which there is no observed effect on any of the indicators being measured in the cluster analysis, especially a 24-hour cluster analysis. […] It will be apparent that 24 hour assays are more time-effective, and consequently, the 24 hour NOEL/Ctox represents a preferred data point to select as Ctox in a CATS assay. It will also be apparent that, with further time studies, it may be possible to select an equally suitable Ctox at other CATS assay time points (e.g., between 24 and 72 hours, or less than 24 hours).
In certain embodiments, the predicting comprises performing concentration response analyses of measurements from at least three separate assays that are employed in the cluster analysis. For example, in the cell health cluster, such predicting will involve monitoring the concentration response effect of the compound on a first health indicator which monitors cellular replication, a second cell health indicator which monitors mitochondrial function, and a third cell health indicator which monitors membrane integrity. Of course, it is understood that fourth, fifth, sixth or more cell health indicators also may be employed. From these concentration response analyses, the highest concentration of the chemical compound at which a measurable toxic effect of the chemical compound is not observable, i.e. NOEL, is determined and the Ctox is identified as the concentration that correlates to the NOEL. In choosing the concentrations of the compound for analysis, one of skill in the art should devise a dose response regimen which is selected to provide an indication of cell health at concentrations of at least two concentration values higher than the Ctox concentration.
The Ctox (H4IIE) value was developed using 24 hr in vitro toxicity data and was validated by retrospectively evaluating compounds across different classes of drugs in 14-day rat studies in which compounds were administered on a daily basis and pharmacokinetic data was available. […] Thus, Ctox values are only determined for the 24 hr in vitro results. The 6 hr toxicity analyses are typically not performed but are beneficial for interpretation of results when compound toxicity is high (e.g., Ctox≦20 μM).

H4IIE cells [13] = test: Membrane lipid peroxidation (8-isoprostane ELISA); type: cell-based, rat; conditions: rat, 24 h
Description: (§9) One test compound (Compound A) was received as dry powder and evaluated for potential cytotoxicity in a battery of in vitro assays. The compound was tested using both rat cardiomyocytes (CM) from rat neonates and a rat hepatoma (H4IIE) cell line. […] Camptothecin and rotenone were included as positive control compounds. The cell supernatant or the cells themselves were harvested for biochemical analysis. General cytotoxicity was evaluated by monitoring membrane integrity, mitochondrial function, cell proliferation, oxidative stress, and apoptosis. In addition, interaction with P-glycoprotein (PgP) on H4IIE cells and solubility of the test compound were also assessed. The means of each exposure group (n=3-7) were calculated for each assay performed. Intra assay variation well-to-well was typically less than 10% with plate to plate variation typically less than 20%.
as §3

rat cardiomyocytes [14] = test: Membrane lipid peroxidation (8-isoprostane ELISA); type: cell-based; conditions: rat, 24 h
Description: as §9

ANP = test: bDNA analysis of mRNA in rat cardiomyocytes; type: cell-based; conditions: rat cardiomyocytes
From the text: (§10) Hypertrophy of the heart ventricular myocytes is regulated by a complex series of intracellular signaling processes involving angiotensin receptors and a series of down stream gene expression changes (Li et al. 2006). Endothelin-1 (ET-1) induces hypertrophy of cardiomyocytes in vivo and in vitro. The mechanism of ET-1-induced hypertrophy consists in the activation of phospholipase C, protein kinase C, extra cellular signal regulated kinase (ERK) and upregulation of cfos and cjun.
(§11) Expression of ANP and BNP mRNA levels was determined by bDNA analysis of mRNA. ET-1 at 0.1 μM was included as a positive control.
(§12) […] Plates were mixed using a DPC 5 Micromix plate shaker at 37° C. for 15-30 minutes to ensure complete lysis of cells. Cell lysis was confirmed using a Nikon inverted microscope. Plates were stored at −80° C. until further analysis.
(§13) bDNA Analysis (Day 1): All solutions were prepared fresh on the day of analysis. Quantigene® bDNA kit components were brought to room temperature prior to use. Chemicals not supplied by Genospectra were obtained from Sigma-Aldrich.
(§14) On the day of analysis, Target Probe Sets were prepared for probe gene sets by adding 25 μL of each probe set component (CE, LE, BL) to 425 μL stock lysis solution using the following probe set concentrations: CE (50 fmol/μL), LE (200 fmol/μL), BL (100 fmol/μL).
(§15) Cell lysis plates were removed from freezer storage and thawed. […] Next, 10 μL of the appropriate Target Probe Set (PS2) was added to each appropriate well of the Capture Plate. Plates were tightly sealed using a plate sealer and incubated at 53° C. for 16-20 hr (overnight).
(§16) bDNA Analysis (Day 2): Wash buffer was prepared in ultra-pure water using 0.1×Saline-Sodium Citrate (SSC) and 0.03% Lithium Lauryl Sulfate (LLS). Amplifier working solution was prepared by adding 10 μL Amplifier to 10 mL Amplifier Diluent per plate.
(§17) Plates were removed from incubator and washed three times with 300 μL wash buffer. Wash buffer was completely removed from plates by aspiration and 100 μL Amplifier working solution was added to each well. Plates were sealed and incubated at 46° C. for 1 hr.
(§18) Label Probe working solution was prepared by adding 10 μL Label Probe to 10 mL Label Probe Diluent per plate. […] Plates were sealed and incubated at 46° C. for 1 hr.

BNP = test: bDNA analysis of mRNA in rat cardiomyocytes; type: cell-based; conditions: rat cardiomyocytes, 0.1 μM, after 3 hr
From the text: as §10, §11, §12, §13, §14, §15, §16, §17, §18

Compound: CN(Cc1cnc2nc(N)nc(N)c2n1)c1ccc(C(=O)N[C@@H](CCC(=O)O)C(=O)O)cc1 [Methotrexate]
sensitivity of cell types in the anti-tumor screen [2]: the tumor cell line is most sensitive to mitochondrial damage

Compound: CS(=O)(=O)c1ccc(C2=C(c3ccccc3)C(=O)OC2)cc1 [Vioxx]
induction of the hypertrophy marker ANP, Vioxx versus Celebrex (ANP; normalized with GAPDH): more effective at inducing the hypertrophy marker ANP

Compound: Endothelin-1 (CSCSSLMDKECVYFCHLDIIW; ends and bridges not checked; cysteine pairing not given here; UniProt P05305 53-73, looked up) [ET-1, positive control inducing cardiomyocyte hypertrophy]
ANP expression increase (ANP; 0.1 μM, after 3 hr): approximately 2 fold
BNP expression increase (BNP): approximately 4.5 fold

The next lines start with results.

potency in heart cells relative to H4IIE liver cells (rat cardiomyocytes [1]): three to four-fold more potent
Compound: Cc1ccc(NC(=O)c2ccc(CN3CCN(C)CC3)cc2)cc1Nc1nccc(-c2cccnc2)n1 [Imatinib]

% Difference (P-glycoprotein (PgP)): 21.9%
Compound: Cc1ccnc2c1NC(=O)c1cccnc1N2C1CC1 [NEVIRAPINE, nevirapine]
CC50 at 24 h [3]: > 300 µM
CC50 at 24 h (Intracellular ATP levels [4]): > 300 µM
% Control (Compound + CSA) (P-glycoprotein (PgP)): 90.2%
% Control (Compound) (P-glycoprotein (PgP)): 115.5%
CC50 at 24 h [5]: > 300 µM
CC50 at 24 h [6]: > 300 µM
CC50 at 24 h [7]: > 300 µM
CC50 at 24 h (MTT reduction [8]): > 300 µM
CC50 at 24 h (MTT reduction [9]): > 300 µM
CC50 at 24 h (Intracellular ATP levels [10]): > 300 µM
CC50 at 24 h [11]: 251 µM
Predicted Ctox (H4IIE cells [12]): 100 µM

Membrane Lipid Peroxidation (H4IIE cells [13]): 0
% Difference (P-glycoprotein (PgP)): 19.0%
Membrane Lipid Peroxidation (rat cardiomyocytes [14]): 0
Compound: CC(C)c1nc(CN(C)C(=O)N[C@H](C(=O)N[C@@H](Cc2ccccc2)C[C@H](O)[C@H](Cc2ccccc2)NC(=O)OCc2cncs2)C(C)C)cs1 [RITONAVIR, ritonavir]
% Control (Compound + CSA) (P-glycoprotein (PgP)): 81.5%
% Control (Compound) (P-glycoprotein (PgP)): 100.6%
Predicted Ctox (H4IIE cells [12]): 52 µM

Reference: patent US7615361B2, “Toxicity screening methods” (Ceetox, Inc., priority 2006, dated 2009)
